Data reported in ChEMBL document CHEMBL1141655, “Structure-activity relationships of Bak derived peptides: affinity and specificity modulations by amino acid replacement” (Eur J Med Chem, 2008).
Non-standard residues stand in square brackets, D forms with d. Residues, ends and D or L forms follow the SMILES beside them. Phe(4-Cl) = N[C@@H](Cc1ccc(Cl)cc1)C(=O)O; 2Nal = N[C@@H](Cc1ccc2ccccc2c1)C(=O)O

Biological target: Bcl-2-like protein 1 (Homo sapiens, UniProt Q07817)
Test: Binding affinity to recombinant Bcl-XL expressed in Escherichia coli BL21 by fluorescence polarization assay

Bcl-2-like protein 1, sequence (Q07817 whole entry): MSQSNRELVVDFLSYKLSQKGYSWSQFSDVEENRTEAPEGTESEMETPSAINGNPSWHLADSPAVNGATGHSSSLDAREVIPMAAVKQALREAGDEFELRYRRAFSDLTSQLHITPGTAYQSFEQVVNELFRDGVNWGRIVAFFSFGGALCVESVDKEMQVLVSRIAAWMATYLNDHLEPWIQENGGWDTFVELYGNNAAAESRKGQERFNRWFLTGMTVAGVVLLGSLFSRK

Row | EC50 | Compound
1 | 58 nM | CC[C@H](C)[C@H](NC(=O)[C@H](C)NC(=O)[C@H](CC(C)C)NC(=O)[C@H](CCC(N)=O)NC(=O)[C@H](CCCNC(=N)N)NC(=O)CNC(=O)[C@@H](NC(=O)[C@H](CCC(N)=O)NC(=O)CN)C(C)C)C(=O)N[C@H](C(=O)NCC(=O)N[C@@H](CC(=O)O)C(=O)N[C@@H](CC(=O)O)C(=O)N[C@@H](CC1CCCCC1)C(=O)N[C@@H](CC(N)=O)C(=O)N[C@@H](CCCNC(=N)N)C(=O)O)[C@@H](C)CC
2 | 267 nM | CC[C@H](C)[C@H](NC(=O)[C@H](C)NC(=O)[C@H](CC(C)C)NC(=O)[C@H](CCC(N)=O)NC(=O)[C@H](CCCNC(=N)N)NC(=O)CNC(=O)[C@@H](NC(=O)[C@H](CCC(N)=O)NC(=O)CN)C(C)C)C(=O)N[C@H](C(=O)NCC(=O)N[C@@H](CC(=O)O)C(=O)N[C@@H](CC(=O)O)C(=O)N[C@@H](Cc1ccc(-c2ccccc2)cc1)C(=O)N[C@@H](CC(N)=O)C(=O)N[C@@H](CCCNC(=N)N)C(=O)O)[C@@H](C)CC
3 | 118 nM | CCCC[C@H](NC(=O)[C@H](CC(=O)O)NC(=O)[C@H](CC(=O)O)NC(=O)CNC(=O)[C@@H](NC(=O)[C@@H](NC(=O)[C@H](C)NC(=O)[C@H](CC(C)C)NC(=O)[C@H](CCC(N)=O)NC(=O)[C@H](CCCN=C(N)N)NC(=O)CNC(=O)[C@@H](NC(=O)[C@H](CCC(N)=O)NC(=O)CN)C(C)C)[C@@H](C)CC)[C@@H](C)CC)C(=O)N[C@@H](CC(N)=O)C(=O)N[C@@H](CCCN=C(N)N)C(=O)O
4 | 77 nM | CC[C@H](C)[C@H](NC(=O)[C@H](C)NC(=O)[C@H](CC(C)C)NC(=O)[C@H](CCC(N)=O)NC(=O)[C@H](CCCN=C(N)N)NC(=O)CNC(=O)[C@@H](NC(=O)[C@H](CCC(N)=O)NC(=O)CN)C(C)C)C(=O)N[C@H](C(=O)NCC(=O)N[C@@H](CC(=O)O)C(=O)N[C@@H](CC(=O)O)C(=O)N[C@@H](Cc1cccc2ccccc12)C(=O)N[C@@H](CC(N)=O)C(=O)N[C@@H](CCCN=C(N)N)C(=O)O)[C@@H](C)CC
5 | 270000 nM | CC[C@H](C)[C@H](NC(=O)[C@H](C)NC(=O)[C@H](C)NC(=O)[C@H](CCC(N)=O)NC(=O)[C@H](CCCN=C(N)N)NC(=O)CNC(=O)[C@@H](NC(=O)[C@H](CCC(N)=O)NC(=O)CN)C(C)C)C(=O)N[C@H](C(=O)NCC(=O)N[C@@H](CC(=O)O)C(=O)N[C@@H](CC(=O)O)C(=O)N[C@H](C(=O)N[C@@H](CC(N)=O)C(=O)N[C@@H](CCCN=C(N)N)C(=O)O)[C@@H](C)CC)[C@@H](C)CC
6 | 54 nM | CC[C@H](C)[C@H](NC(=O)[C@H](C)NC(=O)[C@H](CC(C)C)NC(=O)[C@H](CCC(N)=O)NC(=O)[C@H](CCCN=C(N)N)NC(=O)CNC(=O)[C@@H](NC(=O)[C@H](CCC(N)=O)NC(=O)CN)C(C)C)C(=O)N[C@H](C(=O)NCC(=O)N[C@@H](CC(=O)O)C(=O)N[C@@H](CC(=O)O)C(=O)N[C@@H](Cc1ccccc1)C(=O)N[C@@H](CC(N)=O)C(=O)N[C@@H](CCCN=C(N)N)C(=O)O)[C@@H](C)CC
7 | 359 nM | CC[C@H](C)[C@H](NC(=O)[C@H](C)NC(=O)[C@H](Cc1cccc(Cl)c1)NC(=O)[C@H](CCC(N)=O)NC(=O)[C@H](CCCN=C(N)N)NC(=O)CNC(=O)[C@@H](NC(=O)[C@H](CCC(N)=O)NC(=O)CN)C(C)C)C(=O)N[C@H](C(=O)NCC(=O)N[C@@H](CC(=O)O)C(=O)N[C@@H](CC(=O)O)C(=O)N[C@H](C(=O)N[C@@H](CC(N)=O)C(=O)N[C@@H](CCCN=C(N)N)C(=O)O)[C@@H](C)CC)[C@@H](C)CC
8 | 225 nM | CC[C@H](C)[C@H](NC(=O)[C@H](C)NC(=O)[C@H](CCc1ccccc1)NC(=O)[C@H](CCC(N)=O)NC(=O)[C@H](CCCNC(=N)N)NC(=O)CNC(=O)[C@@H](NC(=O)[C@H](CCC(N)=O)NC(=O)CN)C(C)C)C(=O)N[C@H](C(=O)NCC(=O)N[C@@H](CC(=O)O)C(=O)N[C@@H](CC(=O)O)C(=O)N[C@H](C(=O)N[C@@H](CC(N)=O)C(=O)N[C@@H](CCCNC(=N)N)C(=O)O)[C@@H](C)CC)[C@@H](C)CC
9 | 159 nM | CC[C@H](C)[C@H](NC(=O)[C@H](C)NC(=O)[C@H](CC(C)C)NC(=O)[C@H](CCC(N)=O)NC(=O)[C@H](CCCN=C(N)N)NC(=O)CNC(=O)[C@@H](NC(=O)[C@H](CCC(N)=O)NC(=O)CN)C(C)C)C(=O)N[C@H](C(=O)NCC(=O)N[C@@H](CC(=O)O)C(=O)N[C@@H](CC(=O)O)C(=O)N[C@@H](Cc1ccc(O)cc1)C(=O)N[C@@H](CC(N)=O)C(=O)N[C@@H](CCCN=C(N)N)C(=O)O)[C@@H](C)CC
10 | 45 nM | CC[C@H](C)[C@H](NC(=O)[C@H](C)NC(=O)[C@H](CC(C)C)NC(=O)[C@H](CCC(N)=O)NC(=O)[C@H](CCCN=C(N)N)NC(=O)CNC(=O)[C@@H](NC(=O)[C@H](CCC(N)=O)NC(=O)CN)C(C)C)C(=O)N[C@H](C(=O)NCC(=O)N[C@@H](CC(=O)O)C(=O)N[C@@H](CC(=O)O)C(=O)N[C@@H](Cc1ccc(I)cc1)C(=O)N[C@@H](CC(N)=O)C(=O)N[C@@H](CCCN=C(N)N)C(=O)O)[C@@H](C)CC
11 | 1470 nM | CC[C@H](C)[C@H](NC(=O)[C@H](C)NC(=O)[C@H](CC(C)C)NC(=O)[C@H](CCC(N)=O)NC(=O)[C@H](CCCNC(=N)N)NC(=O)CNC(=O)[C@@H](NC(=O)[C@H](CCC(N)=O)NC(=O)CN)C(C)C)C(=O)N[C@@H](Cc1ccc([N+](=O)[O-])cc1)C(=O)NCC(=O)N[C@@H](CC(=O)O)C(=O)N[C@@H](CC(=O)O)C(=O)N[C@H](C(=O)N[C@@H](CC(N)=O)C(=O)N[C@@H](CCCNC(=N)N)C(=O)O)[C@@H](C)CC
12 | 53 nM | CC[C@H](C)[C@H](NC(=O)[C@H](C)NC(=O)[C@H](Cc1ccc2ccccc2c1)NC(=O)[C@H](CCC(N)=O)NC(=O)[C@H](CCCNC(=N)N)NC(=O)CNC(=O)[C@@H](NC(=O)[C@H](CCC(N)=O)NC(=O)CN)C(C)C)C(=O)N[C@H](C(=O)NCC(=O)N[C@@H](CC(=O)O)C(=O)N[C@@H](CC(=O)O)C(=O)N[C@@H](Cc1ccc(Cl)cc1)C(=O)N[C@@H](CC(N)=O)C(=O)N[C@@H](CCCNC(=N)N)C(=O)O)[C@@H](C)CC (H-GQVGRQ[2Nal]AIIGDD[Phe(4-Cl)]NR-OH)
13 | 93000 nM | CC[C@H](C)[C@H](NC(=O)[C@H](C)NC(=O)[C@H](CC(C)C)NC(=O)[C@H](CCC(N)=O)NC(=O)[C@H](CCCN=C(N)N)NC(=O)CNC(=O)[C@@H](NC(=O)[C@H](CCC(N)=O)NC(=O)CN)C(C)C)C(=O)N[C@H](C(=O)NCC(=O)N[C@@H](CC(=O)O)C(=O)N[C@@H](CC(=O)O)C(=O)N[C@@H](C)C(=O)N[C@@H](CC(N)=O)C(=O)N[C@@H](CCCN=C(N)N)C(=O)O)[C@@H](C)CC
14 | 15000 nM | CC[C@H](C)[C@H](NC(=O)[C@H](C)NC(=O)[C@H](CC(C)C)NC(=O)[C@H](CCC(N)=O)NC(=O)[C@H](CCCNC(=N)N)NC(=O)CNC(=O)[C@H](C)NC(=O)[C@H](CCC(N)=O)NC(=O)CN)C(=O)N[C@H](C(=O)NCC(=O)N[C@@H](CC(=O)O)C(=O)N[C@@H](CC(=O)O)C(=O)N[C@H](C(=O)N[C@@H](CC(N)=O)C(=O)N[C@@H](CCCNC(=N)N)C(=O)O)[C@@H](C)CC)[C@@H](C)CC
15 | > 10000 nM | CC[C@H](C)[C@H](NC(=O)[C@H](C)NC(=O)[C@H](Cc1cccc2ccccc12)NC(=O)[C@H](CCC(N)=O)NC(=O)[C@H](CCCNC(=N)N)NC(=O)CNC(=O)[C@@H](NC(=O)[C@H](CCC(N)=O)NC(=O)CN)C(C)C)C(=O)N[C@H](C(=O)NCC(=O)N[C@@H](CC(=O)O)C(=O)N[C@@H](CC(=O)O)C(=O)N[C@H](C(=O)N[C@@H](CC(N)=O)C(=O)N[C@@H](CCCNC(=N)N)C(=O)O)[C@@H](C)CC)[C@@H](C)CC
16 | 17000 nM | CC[C@H](C)[C@H](NC(=O)[C@H](C)NC(=O)[C@H](CC(C)C)NC(=O)[C@H](CCC(N)=O)NC(=O)[C@H](CCCNC(=N)N)NC(=O)CNC(=O)[C@@H](NC(=O)[C@H](CCC(N)=O)NC(=O)CN)C(C)C)C(=O)N[C@@H](C)C(=O)NCC(=O)N[C@@H](CC(=O)O)C(=O)N[C@@H](CC(=O)O)C(=O)N[C@H](C(=O)N[C@@H](CC(N)=O)C(=O)N[C@@H](CCCNC(=N)N)C(=O)O)[C@@H](C)CC
17 | 9740 nM | CC[C@H](C)[C@H](NC(=O)[C@H](C)NC(=O)[C@H](Cc1cccnc1)NC(=O)[C@H](CCC(N)=O)NC(=O)[C@H](CCCN=C(N)N)NC(=O)CNC(=O)[C@@H](NC(=O)[C@H](CCC(N)=O)NC(=O)CN)C(C)C)C(=O)N[C@H](C(=O)NCC(=O)N[C@@H](CC(=O)O)C(=O)N[C@@H](CC(=O)O)C(=O)N[C@H](C(=O)N[C@@H](CC(N)=O)C(=O)N[C@@H](CCCN=C(N)N)C(=O)O)[C@@H](C)CC)[C@@H](C)CC
18 | > 10000 nM | CC[C@H](C)[C@H](NC(=O)[C@H](C)NC(=O)[C@H](CC(C)C)NC(=O)[C@H](CCC(N)=O)NC(=O)[C@H](CCCNC(=N)N)NC(=O)CNC(=O)[C@@H](NC(=O)[C@H](CCC(N)=O)NC(=O)CN)C(C)C)C(=O)N[C@H](C(=O)NCC(=O)N[C@@H](CC(=O)O)C(=O)N[C@@H](CC(=O)O)C(=O)N[C@@H](CCC(=O)O)C(=O)N[C@@H](CC(N)=O)C(=O)N[C@@H](CCCNC(=N)N)C(=O)O)[C@@H](C)CC
19 | 54 nM | CC[C@H](C)[C@H](NC(=O)[C@H](C)NC(=O)[C@H](Cc1ccc2ccccc2c1)NC(=O)[C@H](CCC(N)=O)NC(=O)[C@H](CCCNC(=N)N)NC(=O)CNC(=O)[C@@H](NC(=O)[C@H](CCC(N)=O)NC(=O)CN)C(C)C)C(=O)N[C@H](C(=O)NCC(=O)N[C@@H](CC(=O)O)C(=O)N[C@@H](CC(=O)O)C(=O)N[C@@H](Cc1ccccc1)C(=O)N[C@@H](CC(N)=O)C(=O)N[C@@H](CCCNC(=N)N)C(=O)O)[C@@H](C)CC (H-GQVGRQ[2Nal]AIIGDDFNR-OH)
20 | 2140 nM | CC[C@H](C)[C@H](NC(=O)[C@H](C)NC(=O)[C@H](CC(C)C)NC(=O)[C@H](CCC(N)=O)NC(=O)[C@H](CCCNC(=N)N)NC(=O)CNC(=O)[C@@H](NC(=O)[C@H](CCC(N)=O)NC(=O)CN)C(C)C)C(=O)N[C@@H](Cc1ccccc1)C(=O)NCC(=O)N[C@@H](CC(=O)O)C(=O)N[C@@H](CC(=O)O)C(=O)N[C@H](C(=O)N[C@@H](CC(N)=O)C(=O)N[C@@H](CCCNC(=N)N)C(=O)O)[C@@H](C)CC
21 | 299 nM | CC[C@H](C)[C@H](NC(=O)[C@H](C)NC(=O)[C@H](CC(C)C)NC(=O)[C@H](CCC(N)=O)NC(=O)[C@H](CCCN=C(N)N)NC(=O)CNC(=O)[C@@H](NC(=O)[C@H](CCC(N)=O)NC(=O)CN)C(C)C)C(=O)N[C@@H](Cc1cccc2ccccc12)C(=O)NCC(=O)N[C@@H](CC(=O)O)C(=O)N[C@@H](CC(=O)O)C(=O)N[C@H](C(=O)N[C@@H](CC(N)=O)C(=O)N[C@@H](CCCN=C(N)N)C(=O)O)[C@@H](C)CC
